In one series the test system is HIV-1NL4-3. Kind of series: Two-drug combination anti-HIV assay in MT4 cells, MacSynergy II analysis. It counts as cell-based. Details: Antiviral Activity Synergy volume / Antiviral Activity Antagonism volume: unit not given here. The method, then:
(§1) This two-drug combination analysis study was performed using the Prichard and Shipman MacSynergy II three dimensional model for statistical evaluation of combination anti-HIV assays. Using a standardized microtiter plate format, each combination assay was performed in MT4 cells acutely infected with HIV-1NL4-3.
(§2) MT4 cells (obtained from the NIH AIDS Research and Reference Reagent Program) were passaged in T-75 flasks prior to use in the antiviral assay. On the day preceding the assay, the cells were split 1:2 to assure they were in an exponential growth phase at the time of infection. Total cell and viability quantification was performed using a hemacytometer and trypan blue exclusion. Cells with greater than 95% cell viability were utilized in the assay. The cells were re-suspended in tissue culture medium and added to the drug-containing microtiter plates in a volume of 110 μL and at a seeding density of 5.0×10^3 cells/well.
(§3) Combination antiviral efficacy was evaluated on three identical assay plates (i.e., triplicate measurements) that included cell control wells (cells only) and virus control wells (cells plus virus). Combination cytotoxicity was evaluated in parallel on two identical assay plates (i.e., duplicate measurements) that included cell control wells.

A further series concerns MT4 cells. Kind of series: Two-drug combination cytotoxicity in uninfected MT4 cells, MacSynergy II analysis. The method, then: as §1, §2, §3
Setting [1] is: two-drug combination with the pivalate fumarate, HIV-1NL4-3 in MT4 cells.
[2] abbreviates: two-drug combination with the pivalate fumarate, MT4 cells infected with HIV-1NL4-3.
Where [3] appears, read: two-drug combination with the pivalate fumarate, uninfected MT4 cells.

Where two headings read alike, the source gives them in different places.

As to `COC(=O)N[C@H](C(=O)N[C@@H](Cc1ccccc1)[C@@H](O)CN(Cc1ccc(-c2ccccn2)cc1)NC(=O)[C@@H](NC(=O)OC)C(C)(C)C)C(C)(C)C` [Atazanavir], the “Interpretation Antiviral” value with HIV-1NL4-3 (setting [1]) was “Additive”. In the series on HIV-1NL4-3 (setting [2]), the “Antiviral Activity Antagonism volume” value is −3.50 and the “Antiviral Activity Synergy volume” value is 39.1.
In the same order, the values of `CC(C)c1nc(CN(C)C(=O)N[C@@H](CCN2CCOCC2)C(=O)N[C@H](CC[C@H](Cc2ccccc2)NC(=O)OCc2cncs2)Cc2ccccc2)cs1` [Cobicistat] are “Additive”, −6.12 and 0.
With `CC(C)CN(C[C@@H](O)[C@H](Cc1ccccc1)NC(=O)O[C@H]1CO[C@H]2OCC[C@H]21)S(=O)(=O)c1ccc(N)cc1` [Darunavir], in the series with HIV-1NL4-3, the “Antiviral Activity Antagonism volume” value is reported as 188/−36.5 and the “Antiviral Activity Synergy volume” value is 188/−36.5.
For `C[C@@H]1CCO[C@H]2Cn3cc(C(=O)NCc4ccc(F)cc4F)c(=O)c(O)c3C(=O)N12` [Dolutegravir], the “Interpretation Antiviral” value in the series on HIV-1NL4-3 (setting [1]) is on record as “Additive”. In the series on HIV-1NL4-3 (setting [2]), the “Antiviral Activity Antagonism volume” value was −4.46 and the “Antiviral Activity Synergy volume” value is recorded as 17.9.
With `O=C1Nc2ccc(Cl)cc2[C@@](C#CC2CC2)(C(F)(F)F)O1` [Efavirenz], in the series on HIV-1NL4-3 (setting [2]), the “Antiviral Activity Antagonism volume” value is on record as −5.92 and the “Antiviral Activity Synergy volume” value is reported as 79.0.
In the same order, the values of `COc1cc2c(cc1Cc1cccc(Cl)c1F)c(=O)c(C(=O)O)cn2[C@H](CO)C(C)C` [Elvitegravir] are 0 and 67.3.
In the same order, the values of `Nc1nc(=O)n([C@@H]2CS[C@H](CO)O2)cc1F` [Emtricitabine] are −8.75 and 98.8.
Take `Cc1ccnc2c1NC(=O)c1cccnc1N2C1CC1` [Nevirapine]: in the series on HIV-1NL4-3 (setting [1]), the “Interpretation Antiviral” value was “Additive”. Further, in the series with HIV-1NL4-3 (setting [2]), the “Antiviral Activity Antagonism volume” value is listed as −9.09 and the “Antiviral Activity Synergy volume” value was determined as 47.6.
For the compound `Cc1nnc(C(=O)NC(C)(C)c2nc(C(=O)NCc3ccc(F)cc3)c(O)c(=O)n2C)o1` [Raltegravir], in the series on MT4 cells (setting [3]), the “Cytotoxicity Antagonism volume” value is recorded as −4.70 and the “Interpretation Cytotoxicity” value is listed as “Additive”. In the series with HIV-1NL4-3, the “Antiviral Activity Antagonism volume” value is given as 1.61/−2.72, the “Antiviral Activity Synergy volume” value was 1.61/−2.72 and the “Interpretation Antiviral” value is recorded as “Additive”.
As for `C[C@H](Cn1cnc2c(N)ncnc21)OCP(=O)(O)O` [Tenofovir, 9-R-[(2-phosphonomethoxy)propyl]adenine], in the series with MT4 cells, the “Cytotoxicity Antagonism volume” value was 0/0 and the “Cytotoxicity Synergy volume” value was 0/0. In addition, the “Interpretation Cytotoxicity” value in the series on MT4 cells (setting [3]) is listed as “Additive”. Besides, in the series on HIV-1NL4-3, the “Antiviral Activity Antagonism volume” value was 79.0/−7.08 and the “Antiviral Activity Synergy volume” value is on record as 79.0/−7.08.
Consider “Tenofovir alafenamide hemifumarate [TAF]”, for which, in the series on MT4 cells (setting [3]), the “Cytotoxicity Antagonism volume” value is on record as 0/0, the “Cytotoxicity Synergy volume” value is given as 0/0 and the “Interpretation Cytotoxicity” value was “Additive”. In the series on HIV-1NL4-3 (setting [1]), the “Interpretation Antiviral” value is “Additive”. Moreover, in the series on HIV-1NL4-3 (setting [2]), the “Antiviral Activity Antagonism volume” value is reported as −47.1 and the “Antiviral Activity Synergy volume” value is given as 41.2.

The record behind these values is patent US12090163B2, “Pharmaceutical compositions” (CIPLA LIMITED, priority 2017, dated 2024).
